From publication PMC7587356, “High-Throughput Screening for Inhibitors of the SARS-CoV-2 Protease Using a FRET-Biosensor” (Molecules, 2020)
Where two headings read alike, the source gives them in different places.

Molecular target: SARS-CoV-2 3CLpro (Severe acute respiratory syndrome coronavirus 2, UniProt P0DTD1)
Experiment: biochemical
Assay type: biochemical
Set-up: Replicate_1 / Replicate_2 / mean / mean (LOPAC_screen_w_protease): unit not given here
Conditions: for mean / Replicate_1 / Replicate_2 / inhibition at 5 µM: sheet LOPAC_screen_w_protease; for inhibition at 5 µM: 4 h
[1] = primary screen with protease, compound at 5 µM, mean of two replicates
[2] = primary screen with protease, compound at 5 µM, replicate 1
[3] = primary screen with protease, compound at 5 µM, replicate 2
[4] = primary screen of LOPAC1280 at 5 µM with protease, mean of the two replicates
[5] = primary screen of LOPAC1280 at 5 µM with protease, replicate 1
[6] = primary screen of LOPAC1280 at 5 µM with protease, replicate 2
[7] = LOPAC1280 primary screen with protease, 5 µM compound, mean of two replicates
[8] = LOPAC1280 primary screen with protease, 5 µM compound, replicate 1
[9] = LOPAC1280 primary screen with protease, 5 µM compound, replicate 2
[10] = primary screen with protease, 5 µM, mean of two replicates
[11] = primary screen with protease, 5 µM, replicate 1
[12] = primary screen with protease, 5 µM, replicate 2

Q: How did the mean (primary screen with protease, mean of two replicates) turn out when `N#CC(C#N)=Cc1ccc([N+](=O)[O-])c(O)c1` [Tyrphostin AG 126] was run?
A: 2.288

Q: What about the Replicate_1 (primary screen with protease, replicate 1) of the same compound?
A: 2.273

Q: What about the Replicate_2 (primary screen with protease, replicate 2) of the same compound?
A: 2.303

Q: Which inhibition at 5 µM (primary screen with protease, compound at 5 µM, mean of two replicates, read-out: mean) does the source give for `N#C/C(=C\c1ccc(O)c(O)c1)C(=O)NCc1ccccc1` [Tyrphostin AG 490] here?
A: 2.61%

Q: And the inhibition at 5 µM (primary screen with protease, compound at 5 µM, replicate 1, read-out: Replicate_1)?
A: 3.18%

Q: What about the inhibition at 5 µM (primary screen with protease, compound at 5 µM, replicate 2, read-out: Replicate_2) of the same compound?
A: 2.05%

Q: For `N#C/C(=C\c1ccc(O)c(O)c1)C(=O)Nc1ccccc1` [Tyrphostin AG 494], which inhibition at 5 µM (primary screen of LOPAC1280 at 5 µM with protease, mean of the two replicates, read-out: mean) is on record?
A: 4.07%

Q: What about the inhibition at 5 µM (primary screen of LOPAC1280 at 5 µM with protease, replicate 1, read-out: Replicate_1) of the same compound?
A: 4.44%

Q: And the inhibition at 5 µM (primary screen of LOPAC1280 at 5 µM with protease, replicate 2, read-out: Replicate_2)?
A: 3.69%

Q: With `C[C@@H](NC(=O)/C(C#N)=C/c1ccc(O)c(O)c1)c1ccccc1` [Tyrphostin AG 527] as the compound, how does the mean [1] read?
A: 2.942

Q: And the Replicate_1 [2]?
A: 4.113

Q: What about the Replicate_2 [3] of the same compound?
A: 1.771

Q: `N#C/C(=C\c1ccc(O)c(O)c1)C(=O)N1CCc2ccccc21` [Tyrphostin AG 528] was tested. Which mean [4] did it give?
A: 3.92

Q: And the Replicate_1 [5]?
A: 3.707

Q: What about the Replicate_2 [6] of the same compound?
A: 4.133

Q: For `N#C/C(=C\c1ccc(O)c(O)c1)C(=O)NCCCNC(=O)/C(C#N)=C/c1ccc(O)c(O)c1` [Tyrphostin AG 537], which “mean (LOPAC_screen_w_protease)” value [7] is on record?
A: 1.443

Q: What about the “Replicate_1 (LOPAC_screen_w_protease)” value [8] of the same compound?
A: 1.008

Q: What about the “Replicate_2 (LOPAC_screen_w_protease)” value [9] of the same compound?
A: 1.878

Q: How did the “mean (LOPAC_screen_w_protease)” value [7] turn out when `N#C/C(=C\c1ccc(O)c(O)c1)C(=O)c1ccc(O)c(O)c1` [Tyrphostin AG 538] was run?
A: 1.741

Q: What about the “Replicate_1 (LOPAC_screen_w_protease)” value [8] of the same compound?
A: 1.926

Q: What about the “Replicate_2 (LOPAC_screen_w_protease)” value [9] of the same compound?
A: 1.555

Q: How did the mean [4] turn out when `N#C/C(=C\c1ccc(O)c(O)c1)C(=O)NCCCc1ccccc1` [Tyrphostin AG 555] was run?
A: 3.848

Q: And the Replicate_1 [5]?
A: 4.708

Q: And the Replicate_2 [6]?
A: 2.988

Q: With `N#CC(=Cc1ccc(O)c(O)c1)C(=O)NCCc1ccccc1` [Tyrphostin AG 698] as the compound, how does the mean [1] read?
A: 2.9723

Q: And the Replicate_1 [2]?
A: 3.137

Q: What about the Replicate_2 [3] of the same compound?
A: 2.808

Q: Which results are given for `N#CC(=Cc1c[nH]c2ccccc12)C(=O)c1ccc(O)c(O)c1` [Tyrphostin AG 808]?
A: mean (LOPAC_screen_w_protease) (LOPAC1280 primary screen with protease, 5 µM compound, mean of the two replicates): 1.999; Replicate_1 (LOPAC_screen_w_protease) [8]: 2.979; Replicate_2 (LOPAC_screen_w_protease) [9]: 1.0189

Q: Which inhibition at 5 µM (LOPAC1280 primary screen with protease, 5 µM compound, mean of the two replicates, read-out: mean) does the source give for `CC(C)(C)c1cc(/C=C(\C#N)C(N)=S)cc(C(C)(C)C)c1O` [Tyrphostin AG 879] here?
A: 5.5%

Q: And the inhibition at 5 µM (LOPAC1280 primary screen with protease, 5 µM compound, replicate 1, read-out: Replicate_1)?
A: 5.93%

Q: And the inhibition at 5 µM (LOPAC1280 primary screen with protease, 5 µM compound, replicate 2, read-out: Replicate_2)?
A: 5.07%

Q: How did the inhibition at 5 µM (LOPAC1280 at 5 µM, mean of two replicates, read-out: mean) turn out when `COc1cc2ncnc(Nc3cccc(Cl)c3)c2cc1OC` [Tyrphostin AG 1478] was run?
A: 1.16%

Q: And the inhibition at 5 µM (LOPAC1280 at 5 µM, replicate 1, read-out: Replicate_1)?
A: 1.39%

Q: And the inhibition at 5 µM (LOPAC1280 at 5 µM, replicate 2, read-out: Replicate_2)?
A: 0.935%

Q: Which mean [1] does the source give for `N#CC(=C(/N)Sc1ccccc1N)/C(C#N)=C(/N)Sc1ccccc1N` [U0126] here?
A: 2.655

Q: What about the Replicate_1 [2] of the same compound?
A: 2.394

Q: And the Replicate_2 [3]?
A: 2.916

Q: How did the mean [10] turn out when `C[C@]12C=CC(=O)C=C1CC[C@@H]1C2=CC[C@]2(C)[C@@H](C(=O)CN3CCN(c4cc(N5CCCC5)nc(N5CCCC5)n4)CC3)CC[C@@H]12.O=C(O)/C=C\C(=O)O` [U-74389G maleate] was run?
A: -0.1973

Q: And the Replicate_1 [11]?
A: -0.4551

Q: And the Replicate_2 [12]?
A: 0.0606

Q: How did the “mean (LOPAC_screen_w_protease)” value [7] turn out when `CCCCC/C=C\C[C@@H](O)/C=C/c1cccc(C[C@@H](O)CCCCO)n1` [U-75302] was run?
A: 1.3528

Q: What about the “Replicate_1 (LOPAC_screen_w_protease)” value [8] of the same compound?
A: 0.07831

Q: What about the “Replicate_2 (LOPAC_screen_w_protease)” value [9] of the same compound?
A: 2.627

Q: Which mean [10] does the source give for `Cc1c(C)c2c(c(C)c1O)CCC(C)(CN1CCN(c3cc(N4CCCC4)nc(N4CCCC4)n3)CC1)O2.Cl.Cl` (stereo not drawn) [U-83836 dihydrochloride] here?
A: 0.07046

Q: What about the Replicate_1 [11] of the same compound?
A: -0.1864

Q: And the Replicate_2 [12]?
A: 0.3273

Q: How did the mean [10] turn out when `CCCN(CCC)C1Cc2cc(OC)c(OC)cc2C1.O=C(O)/C=C\C(=O)O` [U-99194A maleate] was run?
A: -0.07283

Q: What about the Replicate_1 [11] of the same compound?
A: -1.037

Q: And the Replicate_2 [12]?
A: 0.891

Q: For `CC(C)Oc1cccnc1N(C)C1CCN(Cc2ccccc2)CC1.O=C(O)/C=C\C(=O)O` [U-101958 maleate], which mean [10] is on record?
A: 0.02682

Q: What about the Replicate_1 [11] of the same compound?
A: 1.919

Q: And the Replicate_2 [12]?
A: -1.865
